From US12084436B2, “Heterocyclic compound” (Takeda Pharmaceutical Company Limited, priority 2019, dated 2024)

The compounds below were run against T1, HDAC6 enzyme (Homo sapiens, UniProt Q9UBN7) (assay: HDAC6 enzyme inhibitory assay (HDAC-Glo I/II Assay kit, luminescence)). Conditions: 10 μM test compound; wells without enzyme = 100% inhibition; read-out: HDAC6 inhibitory rate (%) (10 μM).
T1 construct: prepared by transducing full length HDAC6 gene into Sf-9 insect cells; GST; purchased SignalChem; host or cells: Sf-9 insect cells
T1 sequence (Q9UBN7 1-1215): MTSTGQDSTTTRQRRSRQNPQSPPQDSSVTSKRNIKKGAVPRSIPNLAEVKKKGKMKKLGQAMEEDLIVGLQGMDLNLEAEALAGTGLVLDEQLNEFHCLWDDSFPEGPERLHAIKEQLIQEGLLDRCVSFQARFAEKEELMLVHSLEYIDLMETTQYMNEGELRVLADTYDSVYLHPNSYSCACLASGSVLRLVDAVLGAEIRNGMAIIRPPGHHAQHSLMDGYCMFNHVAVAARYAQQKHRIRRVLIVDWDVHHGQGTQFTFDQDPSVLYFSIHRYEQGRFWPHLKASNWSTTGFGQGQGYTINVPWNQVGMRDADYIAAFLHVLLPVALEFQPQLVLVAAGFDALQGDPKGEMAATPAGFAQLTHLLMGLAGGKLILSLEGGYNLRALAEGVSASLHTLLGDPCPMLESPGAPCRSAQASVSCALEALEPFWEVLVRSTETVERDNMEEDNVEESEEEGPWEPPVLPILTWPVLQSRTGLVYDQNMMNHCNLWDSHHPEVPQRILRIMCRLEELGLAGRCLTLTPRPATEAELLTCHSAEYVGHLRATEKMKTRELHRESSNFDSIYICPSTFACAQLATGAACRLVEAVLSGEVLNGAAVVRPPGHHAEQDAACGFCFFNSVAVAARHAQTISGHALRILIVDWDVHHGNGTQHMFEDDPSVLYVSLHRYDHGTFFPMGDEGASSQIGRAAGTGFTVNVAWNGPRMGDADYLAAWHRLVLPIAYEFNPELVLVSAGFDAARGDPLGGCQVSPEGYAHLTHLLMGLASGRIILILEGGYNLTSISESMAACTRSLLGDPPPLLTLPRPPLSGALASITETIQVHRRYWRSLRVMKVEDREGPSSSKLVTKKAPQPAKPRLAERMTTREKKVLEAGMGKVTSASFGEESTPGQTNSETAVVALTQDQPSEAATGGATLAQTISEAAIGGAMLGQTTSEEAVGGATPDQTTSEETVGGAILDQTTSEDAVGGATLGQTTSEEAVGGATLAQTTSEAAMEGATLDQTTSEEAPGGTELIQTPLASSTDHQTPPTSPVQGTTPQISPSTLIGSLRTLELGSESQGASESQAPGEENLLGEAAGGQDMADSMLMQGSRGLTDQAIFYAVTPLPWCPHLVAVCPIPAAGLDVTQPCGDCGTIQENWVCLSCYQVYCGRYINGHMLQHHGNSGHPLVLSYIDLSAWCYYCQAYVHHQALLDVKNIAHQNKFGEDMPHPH
Format: biochemical
Outline: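 Full-length human HDAC6, GST-purified from Sf-9 cells, was preincubated with compound for 60 min at room temperature in Tris-HCl pH 7.5 buffer with glutathione and Tween-20. Substrate-developer was then added, and luminescence was read after 20 min at room temperature. Inhibition was expressed relative to no-enzyme wells, taken as 100% inhibition.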
`Cn1ccc(Cn2ccnc2-c2cc(F)cc(-c3nnc(C(F)F)o3)c2)n1` [Example 23a, 2-(difluoromethyl)-5-(3-fluoro-5-{1-[(1-methyl-1H-pyrazol-3-yl)methyl]-1H-imidazol-2-yl}phenyl)-1,3,4-oxadiazole] showed an inhibition at 10 µM of 96%. `O=C(OC1CCOCC1)N(Cc1ccc(F)cc1)N1Cc2ccc(-c3nnc(C(F)F)o3)cc2C1=O` [Example 23c, oxan-4-yl {6-[5-(difluoromethyl)-1,3,4-oxadiazol-2-yl]-1-oxo-1,3-dihydro-2H-isoindol-2-yl}[(4-fluorophenyl)methyl]carbamate] showed an inhibition at 10 µM of 101%. Compound `Fc1cc(-c2nnc(C(F)F)o2)cc(-c2nccn2Cc2ccncc2)c1` [Example 24a, 4-[(2-{3-[5-(difluoromethyl)-1,3,4-oxadiazol-2-yl]-5-fluorophenyl}-1H-imidazol-1-yl)methyl]pyridine] has an inhibition at 10 µM of 98%. Compound `COC1CCCC(OC(=O)N(Cc2ccc(F)cc2)N2Cc3ccc(-c4nnc(C(F)F)o4)cc3C2=O)C1` (centres unmarked) [Example 24c, 3-methoxycyclohexyl {6-[5-(difluoromethyl)-1,3,4-oxadiazol-2-yl]-1-oxo-1,3-dihydro-2H-isoindol-2-yl}[(4-fluorophenyl)methyl]carbamate] has an inhibition at 10 µM of 100%. With `Fc1cc(-c2nnc(C(F)F)o2)cc(-c2nccn2Cc2cncnc2)c1` [Example 25a, 5-[(2-{3-[5-(difluoromethyl)-1,3,4-oxadiazol-2-yl]-5-fluorophenyl}-1H-imidazol-1-yl)methyl]pyrimidine] the inhibition at 10 µM was 98%. Work on `CN1C(=O)c2cc(-c3nnc(C(F)F)o3)cnc2CC1(C)c1ccc(F)cc1` (centres unmarked) [Example 25b, 3-[5-(difluoromethyl)-1,3,4-oxadiazol-2-yl]-7-(4-fluorophenyl)-6,7-dimethyl-7,8-dihydro-1,6-naphthyridin-5(6H)-one] yielded an inhibition at 10 µM of 100%. Compound `O=C(OCc1ccccn1)N(Cc1ccc(F)cc1)N1Cc2ccc(-c3nnc(C(F)F)o3)cc2C1=O` [Example 25c, (pyridin-2-yl)methyl {6-[5-(difluoromethyl)-1,3,4-oxadiazol-2-yl]-1-oxo-1,3-dihydro-2H-isoindol-2-yl}[(4-fluorophenyl)methyl]carbamate] has an inhibition at 10 µM of 99%. `Fc1cc(-c2nnc(C(F)F)o2)cc(-c2nccn2Cc2cccnn2)c1` [Example 26a] was tested, and the inhibition at 10 µM was 96%. With `CN1C(=O)c2cc(-c3nnc(C(F)F)o3)ccc2OC1(C)c1ccc(Cl)cc1` (centres unmarked) [Example 26b, 2-(4-chlorophenyl)-6-[5-(difluoromethyl)-1,3,4-oxadiazol-2-yl]-2,3-dimethyl-2,3-dihydro-4H-1,3-benzoxazin-4-one] the inhibition at 10 µM was 100%. Compound `O=C(OC1CCOC1)N(Cc1ccc(F)cc1)N1Cc2ccc(-c3nnc(C(F)F)o3)cc2C1=O` (centres unmarked) [Example 26c, oxolan-3-yl {6-[5-(difluoromethyl)-1,3,4-oxadiazol-2-yl]-1-oxo-1,3-dihydro-2H-isoindol-2-yl}[(4-fluorophenyl)methyl]carbamate] has an inhibition at 10 µM of 99%. With `COCCn1ccnc1-c1cc(F)cc(-c2nnc(C(F)F)o2)c1` [Example 27a] the inhibition at 10 µM was 95%. For `CCS(=O)(=O)N(Cc1ccc(F)cc1)N1Cc2ccc(-c3nnc(C(F)F)o3)cc2C1=O` [Example 27c, N-{6-[5-(difluoromethyl)-1,3,4-oxadiazol-2-yl]-1-oxo-1,3-dihydro-2H-isoindol-2-yl}-N-[(4-fluorophenyl)methyl] ethanesulfonamide], the inhibition at 10 µM was 99%. Compound `Fc1cc(-c2nnc(C(F)F)o2)cc(-c2nccn2CC2CCC(F)(F)CC2)c1` [Example 28a, 2-(3-{1-[(4,4-difluorocyclohexyl)methyl]-1H-imidazol-2-yl)-5-fluorophenyl)-5-(difluoromethyl)-1,3,4-oxadiazole] has an inhibition at 10 µM of 99%. For `O=C1NN(C2CCOCC2)Cc2ccc(-c3nnc(C(F)F)o3)cc21` [Example 28b, 7-[5-(difluoromethyl)-1,3,4-oxadiazol-2-yl]-3-(oxan-4-yl)-3,4-dihydrophthalazin-1(2H)-one], the inhibition at 10 µM was 97%. `CN(Cc1ccc(F)cc1)N1Cc2ccc(-c3nnc(C(F)F)o3)cc2C1=O` [Example 28c, 6-[5-(difluoromethyl)-1,3,4-oxadiazol-2-yl]-2-{[(4-fluorophenyl)methyl](methyl)amino}-2,3-dihydro-1H-isoindol-1-one] was tested, and the inhibition at 10 µM was 99%. For `Fc1cc(-c2nnc(C(F)F)o2)cc(-c2nccn2CC2CCCOC2)c1` (centres unmarked) [Example 29a, 2-(difluoromethyl)-5-(3-fluoro-5-{1-[(oxan-3-yl)methyl]-1H-imidazol-2-yl}phenyl)-1,3,4-oxadiazole], the inhibition at 10 µM was 99%. Compound `O=C1NN(C2CCC(F)(F)CC2)Cc2ccc(-c3nnc(C(F)F)o3)cc21` [Example 29b, 3-(4,4-difluorocyclohexyl)-7-[5-(difluoromethyl)-1,3,4-oxadiazol-2-yl]-3,4-dihydrophthalazin-1(2H)-one] has an inhibition at 10 µM of 99%. `O=C1c2cc(-c3nnc(C(F)F)o3)ccc2CN1NC1CCCCC1` [Example 29c, 2-(cyclohexylamino)-6-[5-(difluoromethyl)-1,3,4-oxadiazol-2-yl]-2,3-dihydro-1H-isoindol-1-one] was tested, and the inhibition at 10 µM was 95%. `Fc1cc(-c2nnc(C(F)F)o2)cc(-c2nccn2CC2CCOCC2)c1` [Example 30a, 2-(difluoromethyl)-5-(3-fluoro-5-{1-[(oxan-4-yl)methyl]-1H-imidazol-2-yl}phenyl)-1,3,4-oxadiazole] showed an inhibition at 10 µM of 98%. `O=C1NN(c2ccc(F)c(F)c2)Cc2ccc(-c3nnc(C(F)F)o3)cc21` [Example 30b, 7-[5-(difluoromethyl)-1,3,4-oxadiazol-2-yl]-3-(3,4-difluorophenyl)-3,4-dihydrophthalazin-1(2H)-one] showed an inhibition at 10 µM of 100%. With `O=C1c2cc(-c3nnc(C(F)F)o3)ccc2CN1Nc1ccc(F)cc1` [Example 30c, 6-[5-(difluoromethyl)-1,3,4-oxadiazol-2-yl]-2-(4-fluoroanilino)-2,3-dihydro-1H-isoindol-1-one] the inhibition at 10 µM was 92%. `CC(=O)N1CCC(Cn2ccnc2-c2cc(F)cc(-c3nnc(C(F)F)o3)c2)CC1` [Example 31a, 1-{4-[(2-{3-[5-(difluoromethyl)-1,3,4-oxadiazol-2-yl]-5-fluorophenyl}-1H-imidazol-1-yl)methy]piperidin-1-yl}ethan-1-one] showed an inhibition at 10 µM of 98%. Compound `O=C1NN(c2ccc(F)c(Cl)c2)Cc2ccc(-c3nnc(C(F)F)o3)cc21` [Example 31b, 3-(3-chloro-4-fluorophenyl)-7-[5-(difluoromethyl)-1,3,4-oxadiazol-2-yl]-3,4-dihydrophthalazin-1(2H)-one] has an inhibition at 10 µM of 100%. For `O=C1c2cc(-c3nnc(C(F)F)o3)ccc2CN1NCC(F)(F)F` [Example 31c, 6-[5-(difluoromethyl)-1,3,4-oxadiazol-2-yl]-2-[(2,2,2-trifluoroethyl)amino]-2,3-dihydro-1H-isoindol-1-one], the inhibition at 10 µM was 90%. In the case of `CCNC(=O)Cn1ccnc1-c1cc(F)cc(-c2nnc(C(F)F)o2)c1` [Example 32a, 2-(2-{3-[5-(difluoromethyl)-1,3,4-oxadiazol-2-yl]-5-fluorophenyl]-1H-imidazol-1-yl)-N-ethylacetamide], the inhibition at 10 µM is reported as 91%. `CN1C(=O)c2cc(-c3nnc(C(F)F)o3)ccc2OC1(C)c1ccc(F)c(F)c1` (centres unmarked) [Example 32b, 6-[5-(difluoromethyl)-1,3,4-oxadiazol-2-yl]-2-(3,4-difluorophenyl)-2,3-dimethyl-2,3-dihydro-4H-1,3-benzoxazin-4-one] showed an inhibition at 10 µM of 100%.
